Tests used:
[1] = tested on: activity of the diazepam in the pentetrazole test; assay: antagonism of diazepam in the pentetrazole test; format: in vivo; settings: Mus musculus, po; counteracts the diazepam effect in 50% of the animals; diazepam 5 mg/kg i.p. 1 hour before, test compound p.o. 15 minutes before pentetrazole 120 mg/kg i.p.; mice
Description: (§1) This property was used to evaluate the test described hereinafter which permits the determination of compounds which are capable of antagonizing the central properties of 1,4-benzodiazepines which have tranquillizing activity.
(§2) The antagonistic activity of the compounds investigated, i.e. their ability to counteract the activity of the diazepam in the pentetrazole test, is determined by counting the mice which suffer convulsive attacks in this test.
In the following Table there are presented the results which have been obtained with representative members of the class of compound defined by formula I in the test previously described. The ED50 is the amount of test compound in mg/kg (p.o.) which in 50% of the animals counteracts the diazepam effect in the above test. Moreover, the Table contains the IC50 value (defined above) for all test compounds listed therein.

[2] = target: central benzodiazepine receptors; assay: inhibition of the binding of tritiated diazepam at the specific benzodiazepine receptors in the cerebral cortex; settings: 50 percent inhibition of the specific binding of the tritiated diazepam
Description: The affinity of compounds of formula I to the central benzodiazepine receptors was determined according to the method described in Life Science 20, 2101-2110 (1977) and Science 198, 849-851 (1977). According to this method, the inhibition of the binding of tritiated diazepam at the specific benzodiazepine receptors in the cerebral cortex by the respective test substances is ascertained. The IC50 ("50% inhibiting concentration") is that concentration of the respective test substance which brings about a 50 percent inhibition of the specific binding of the tritiated diazepam at the specific benzodiazepine receptors in the cerebral cortex.

[3] = tested on: convulsive attacks in the pentetrazole test; assay: pentetrazole test (anticonvulsant activity of diazepam); format: in vivo; settings: diazepam 5 mg/kg i.p. (supramaximal dosage), more than 900 mice
Description: as §1, §2

O=C1c2c(Cl)cccc2-n2cnc(Cl)c2C2C=CCN12 (racemic) [(a) H Cl Cl --CH=CH--CH2 -- O (R/S), (R,S)-1,8-dichloro-11,13a-dihydro-9H-imidazo[1,5-a]pyrrolo[2,1-c][1,4]benzodiazepin-9-one]
ED50 [1]: 1 mg/kg | IC50 [2]: 3.9 nM

O=C1c2c(Cl)cccc2-n2cncc2C2C=CCN12 (racemic) [(a) H Cl H --CH=CH--CH2 -- O (R/S), (R,S)-8-chloro-11,13a-dihydro-9H-imidazo[1,5-a]pyrrolo[2,1-c][1,4]benzodiazepin-9-one]
ED50 [1]: 10.9 mg/kg | IC50 [2]: 240 nM

CN1Cc2c(Br)ncn2-c2ccc(F)cc2C1=O [(a) F H Br H --CH3 O --, 3-bromo-8-fluoro-4,5-dihydro-5-methyl-6H-imidazo[1,5-a][1,4]benzodiazepin-6-one]
ED50 [1]: 7.1 mg/kg | IC50 [2]: 51 nM

CN1Cc2c(Cl)ncn2-c2ccc(F)cc2C1=O [(a) F H Cl H --CH3 O --, 3-chloro-8-fluoro-4,5-dihydro-5-methyl-6H-imidazo[1,5-a][1,4]benzodiazepin-6-one]
ED50 [1]: 2.3 mg/kg | IC50 [2]: 28 nM

COCc1ncn2c1CN(C)C(=O)c1c(Cl)cccc1-2 [(a) H Cl --CH2 OCH3 H --CH3 O --, 7-chloro-4,5-dihydro-3-(methoxymethyl)-5-methyl-6H-imidazo[1,5-a][1,4]benzodiazepin-6-one]
ED50 [1]: 1.4 mg/kg | IC50 [2]: 30 nM

CN1Cc2c(Cl)ncn2-c2cccc(Cl)c2C1=O [(a) H Cl Cl H --CH3 O --, 3,7-dichloro-4,5-dihydro-5-methyl-6H-imidazo[1,5-a][1,4]benzodiazepin-6-one]
ED50 [1]: 0.9 mg/kg | IC50 [2]: 3.6 nM

CN1Cc2cncn2-c2cccc(Cl)c2C1=O [(a) H Cl H H --CH3 O --, 7-chloro-4,5-dihydro-5-methyl-6H-imidazo[1,5-a][1,4]benzodiazepin-6-one]
ED50 [1]: 6.2 mg/kg | IC50 [2]: 110 nM

COCc1ncn2c1CN(C)C(=O)c1ccccc1-2 [(a) H H --CH2 OCH3 H --CH3 O --, 4,5-dihydro-3-(methoxymethyl)-5-methyl-6H-imidazo[1,5-a][1,4]benzodiazepin-6-one]
ED50 [1]: 8.9 mg/kg | IC50 [2]: 380 nM

CN1Cc2c([N+](=O)[O-])ncn2-c2ccccc2C1=O [(a) H H --NO2 H --CH3 O --, 4,5-dihydro-5-methyl-3-nitro-6H-imidazo[1,5-a][1,4]benzodiazepin-6-one]
ED50 [1]: 4 mg/kg | IC50 [2]: 72 nM

O=C1c2ccccc2-n2cnc(Br)c2[C@@H]2CCCN12 [(a) H H Br --(CH2)3 -- O (S), (S)-1-bromo-11,12,13,13a-tetrahydro-9H-imidazo[1,5-a]pyrrolo[2,1-c][1,4]benzodiazepin-9-one]
ED50 [1]: 9.9 mg/kg | IC50 [2]: 48 nM

CN1Cc2c(Br)ncn2-c2ccccc2C1=O [(a) H H Br H --CH3 O --, 3-bromo-4,5-dihydro-5-methyl-6H-imidazo[1,5-a][1,4]benzodiazepin-6-one]
ED50 [1]: 4.5 mg/kg | IC50 [2]: 34 nM

O=C1c2ccccc2-n2cnc(Cl)c2[C@@H]2CCCN12 [(a) H H Cl --(CH2)3 -- O (S), (S)-1-chloro-11,12,13,13a-tetrahydro-9H-imidazo[1,5-a]pyrrolo[2,1-c][1,4]benzodiazepin-9-one]
ED50 [1]: 8 mg/kg | IC50 [2]: 120 nM

CN1Cc2c(Cl)ncn2-c2ccccc2C1=O [(a) H H Cl H --CH3 O --, 3-chloro-4,5-dihydro-5-methyl-6H-imidazo[1,5-a][1,4]benzodiazepin-6-one]
ED50 [1]: 1.7 mg/kg | IC50 [2]: 100 nM

CN1Cc2c(Cl)ncn2-c2ccccc2C1=S [(a) H H Cl H --CH3 S --, 3-chloro-4,5-dihydro-5-methyl-6H-imidazo[1,5-a][1,4]benzodiazepine-6-thione]
ED50 [1]: 10.5 mg/kg | IC50 [2]: 250 nM

CN1Cc2c(I)ncn2-c2ccccc2C1=O [(a) H H J H --CH3 O --, 4,5-dihydro-3-iodo-5-methyl-6H-imidazo[1,5-a][1,4]benzodiazepin-6-one]
ED50 [1]: 2.5 mg/kg | IC50 [2]: 23 nM

O=C1c2sccc2-n2cnc(Cl)c2[C@@H]2CCCN12 [(b) -- -- Cl --(CH2)3 -- O (S), (S)-1-Chloro-10,11,12,12a-tetrahydro-8H-imidazo[5,1-c]pyrrolo[1,2-a]thieno[3,2-e][1,4]diazepin-8-one]
ED50 [1]: 0.83 mg/kg | IC50 [2]: 17 nM

CN1C(=O)CN=C(c2ccccc2)c2cc(Cl)ccc21 [diazepam]
protection from convulsive attacks [3]: protects all experimental animals from convulsive attacks

Source: patent US4352818A, “Diazepine derivatives and their use” (Hoffmann-La Roche Inc., priority 1981, dated 1982)
